Laboratory results: EP0938471B1, “THE PREPARATION AND USE OF ORTHO-SULFONAMIDO ARYL HYDROXAMIC ACIDS AS MATRIX METALLOPROTEINASE AND TACE INHIBITORS” (priority 1996, dated 1998)
Structures can show the parent of a compound that is named as a salt. Where two headings read alike, the source gives them in different places.

Key:
Format in all cases: biochemical
MMP-13 = MMP-13 (Homo sapiens, UniProt P45452); test: MMP-13 inhibition (thiopeptide or fluorescent peptide substrate assay); details: for inhibition at 1 µM: read-out: MMP-13 % inhibition, footnote: 1µM; for MMP-13 % inhibition: concentration given as (.1), unit not given
MMP-1 = target: T1, MMP-1 (Homo sapiens, UniProt P03956); test: MMP-1 inhibition (thiopeptide or fluorescent peptide substrate assay); details: for IC50: read-out: MMP-1 IC50; for inhibition at 1 µM: read-out: MMP-1 % inhibition, footnote: 1µM; for MMP-1 % inhibition: concentration given as (10), unit not given
T1 sequence (P03956 100-469): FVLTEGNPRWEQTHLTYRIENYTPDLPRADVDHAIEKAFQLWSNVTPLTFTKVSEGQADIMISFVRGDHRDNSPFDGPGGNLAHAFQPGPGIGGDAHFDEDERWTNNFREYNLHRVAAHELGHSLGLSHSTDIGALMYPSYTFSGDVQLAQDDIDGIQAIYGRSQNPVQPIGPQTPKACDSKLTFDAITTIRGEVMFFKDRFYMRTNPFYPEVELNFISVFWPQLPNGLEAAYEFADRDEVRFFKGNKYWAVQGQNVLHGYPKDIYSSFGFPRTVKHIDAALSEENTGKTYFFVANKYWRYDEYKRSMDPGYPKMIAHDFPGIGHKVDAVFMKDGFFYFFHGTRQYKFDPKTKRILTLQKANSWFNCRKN

MMP-9 = MMP-9 (Homo sapiens, UniProt P14780); test: MMP-9 inhibition (thiopeptide or fluorescent peptide substrate assay); details: for IC50: read-out: MMP-9 IC50; for inhibition at 1 µM: read-out: MMP-9 % inhibition, footnote: 1µM
TACE = TACE (Homo sapiens, UniProt P78536); test: TACE inhibition (fluorescent peptidyl substrate); details: for inhibition at 1 µM: at 1µM concentration
Chain of TACE (P78536 215-824): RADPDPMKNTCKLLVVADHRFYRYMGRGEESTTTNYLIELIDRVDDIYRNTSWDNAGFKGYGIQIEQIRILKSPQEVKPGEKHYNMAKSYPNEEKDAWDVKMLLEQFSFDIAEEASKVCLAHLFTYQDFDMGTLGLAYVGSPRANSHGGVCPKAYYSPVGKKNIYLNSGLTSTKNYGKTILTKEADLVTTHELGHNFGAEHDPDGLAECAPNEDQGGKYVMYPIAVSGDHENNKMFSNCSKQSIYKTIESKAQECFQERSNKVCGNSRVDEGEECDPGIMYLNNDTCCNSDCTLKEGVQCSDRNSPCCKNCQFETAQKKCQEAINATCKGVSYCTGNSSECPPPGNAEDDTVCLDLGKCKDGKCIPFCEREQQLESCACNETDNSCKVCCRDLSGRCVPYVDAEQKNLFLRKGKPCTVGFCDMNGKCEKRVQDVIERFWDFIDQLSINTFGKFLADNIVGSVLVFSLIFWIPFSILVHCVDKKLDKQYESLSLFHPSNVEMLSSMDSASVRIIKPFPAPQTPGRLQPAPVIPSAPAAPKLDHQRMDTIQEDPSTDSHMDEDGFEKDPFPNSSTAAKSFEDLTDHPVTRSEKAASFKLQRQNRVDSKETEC

Chain of MMP-9 (P14780 94-707): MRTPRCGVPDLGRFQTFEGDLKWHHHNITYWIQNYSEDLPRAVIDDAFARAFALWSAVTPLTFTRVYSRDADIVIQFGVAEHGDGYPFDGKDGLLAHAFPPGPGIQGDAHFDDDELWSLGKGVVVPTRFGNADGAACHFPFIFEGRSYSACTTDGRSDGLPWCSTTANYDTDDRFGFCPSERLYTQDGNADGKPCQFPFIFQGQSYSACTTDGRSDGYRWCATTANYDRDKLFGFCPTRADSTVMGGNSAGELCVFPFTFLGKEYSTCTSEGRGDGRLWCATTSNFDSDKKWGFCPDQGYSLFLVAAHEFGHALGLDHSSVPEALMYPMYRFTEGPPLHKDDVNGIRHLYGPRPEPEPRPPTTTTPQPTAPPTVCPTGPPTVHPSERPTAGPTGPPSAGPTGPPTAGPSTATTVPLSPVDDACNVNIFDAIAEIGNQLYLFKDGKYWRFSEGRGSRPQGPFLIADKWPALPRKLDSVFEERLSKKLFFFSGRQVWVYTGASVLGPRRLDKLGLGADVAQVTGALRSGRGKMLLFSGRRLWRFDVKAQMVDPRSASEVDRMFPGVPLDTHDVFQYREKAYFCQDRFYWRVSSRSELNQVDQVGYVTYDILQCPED

Compound	inhibition at 1 µM (MMP-9)	inhibition at 1 µM (TACE)	IC50 (MMP-13; read-out: MMP-13 IC50)	IC50 (MMP-1)	IC50 (MMP-9)	IC50 (TACE; read-out: TACE IC50)	other results
COc1ccc(S(=O)(=O)N(Cc2ccc(CN(C)C)cc2)c2c(C)cccc2C(=O)NO)cc1 [Example 378, 2-[(4-Dimethylaminomethyl-benzyl)-(4-methoxy-benzenesulfonyl)-amino]-N-hydroxy-3-methyl-benzamide]			11 nM	213 nM	2.9 nM	243 nM	
CCN(CC)CC#CCN(c1c(C)cccc1C(=O)NO)S(=O)(=O)c1ccc(OC)cc1 [Example 381, 2-[(4-Diethylamino-but-2-ynyl)-(4-methoxy-benzenesulfonyl)-amino]-N-hydroxy-3-methyl-benzamide]			19 nM	470 nM	11 nM	218 nM	
CCOC(=O)CCCN(c1c(C)cccc1C(=O)NO)S(=O)(=O)c1ccc(OC)cc1 [Example 383, 4-[(2-Hydroxycarbamoyl-6-methyl-phenyl)-(4-methoxy-benzenesulfonyl)-amino]-butyric acid ethyl ester]	87%	45%					inhibition at 1 µM (MMP-13): 48%; inhibition at 1 µM (MMP-1): 34%
CCOC(=O)CCCCN(c1c(C)cccc1C(=O)NO)S(=O)(=O)c1ccc(OC)cc1 [Example 384, 5-[(2-Hydroxycarbamoyl-6-methyl-phenyl)-(4-methoxy-benzenesulfonyl)-amino]-pentanoic acid ethyl ester]	52%	55%					inhibition at 1 µM (MMP-13): 61%; inhibition at 1 µM (MMP-1): 48%
COc1ccc(S(=O)(=O)N(CC(=O)OCc2ccccc2)c2c(C)cccc2C(=O)NO)cc1 [Example 385, [(2-Hydroxycarbamoyl-6-methyl-phenyl)-(4-methoxy-benzenesulfonyl)-amino]-acetic acid benzyl ester]	65%	56%					inhibition at 1 µM (MMP-13): 66%; inhibition at 1 µM (MMP-1): 25%
COc1ccc(S(=O)(=O)N(CC(=O)NCc2ccccn2)c2c(C)cccc2C(=O)NO)cc1 [Example 386, N-Hydroxy-2-[[(4-methoxyphenyl)sulfonyl][2-oxo-2-[(2-pyridinylmethyl)amino]ethyl]amino]-3-methylbenzamide]		46%					MMP-13 % inhibition (MMP-13): 11%(.1); inhibition at 1 µM (MMP-1): 21%; MMP-9 % inhibition (MMP-9; concentration given as (.1), unit not given): 16%(.1)
COc1ccc(S(=O)(=O)N(CC(=O)N2CCN(C)CC2)c2c(C)cccc2C(=O)NO)cc1 [Example 387, N-Hydroxy-2-{(4-methoxy-benzenesulfonyl)-[2-(4-methyl-piperazin-1-yl)-2-oxo-ethyl]-amino}-3-methyl-benzamide]		38%	307 nM	2720 nM	96 nM		
COc1ccc(S(=O)(=O)N(Cc2ccccc2)c2c(C)cc(N(C)C)cc2C(=O)NO)cc1 [Example 389, 2-[Benzyl-(4-methoxy-benzenesulfonyl)-amino]-5-dimethylamino-N-hydroxy-3-methyl-benzamide]			39 nM	63 nM	2 nM	633 nM	
COc1ccc(S(=O)(=O)N(Cc2ccc(OCCN3CCCCC3)cc2)c2c(C)cccc2C(=O)NO)cc1 [Example 393, N-Hydroxy-2-[[(4-methoxyphenyl)sulfonyl][[4-[2-(1-piperidinyl)ethoxy]phenyl]methyl]amino]-3-methylbenzamide]				176 nM	6.9 nM		IC50 (MMP-13): 56 nM; IC50 (TACE): 277 nM
CCN(CC)CCOc1ccc(CN(c2c(C)cccc2C(=O)NO)S(=O)(=O)c2ccc(OC)cc2)cc1 [Example 394, 2-[[4-(2-Diethylamino-ethoxy)-benzyl]-(4-methoxy-benzenesulfonyl)-amino]-N-hydroxy-3-methyl-benzamide]			8.8 nM	96 nM	2.3 nM	215 nM	
COc1ccc(S(=O)(=O)N(Cc2ccc(OCCN3CCCCC3)cc2)c2c(C)cc(Br)cc2C(=O)NO)cc1 [Example 395, 5-Bromo-N-hydroxy-2-{(4-methoxy-benzenesulfonyl)-[4-(2-piperidin-1-yl-ethoxy)-benzyl]-amino}-3-methyl-benzamide]			3.1 nM	35 nM	2.3 nM	108 nM	
COc1ccc(S(=O)(=O)N(Cc2ccc(C(=O)NCCN3CCCCC3)cc2)c2c(C)cccc2C(=O)NO)cc1 [Example 396]			35 nM	184 nM	6.3 nM	363 nM	
COc1ccc(-c2ccc(-c3cc(C)c(N(Cc4cccnc4)S(=O)(=O)c4ccc(OC)cc4)c(C(=O)NO)c3)cc2)cc1 [Example 399, 4"-Methoxy-4-[(4-methoxy-benzenesulfonyl)-pyridin-3-ylmethyl-amino]-5-methyl-[1,1';4',1"]terphenyl-3-carboxylic acid hydroxyamide hydrochloride salt]		25%	41 nM	2200 nM	45 nM		
COc1ccc(S(=O)(=O)N(Cc2cccnc2)c2c(C)cc(-c3cccc([N+](=O)[O-])c3)cc2C(=O)NO)cc1 [Example 400, 4-[(4-Methoxy-benzenesulfonyl)-pyridin-3-ylmethyl-amino]-5-methyl-3'-nitro-biphenyl-3-carboxylic acid hydroxyamide hydrochloride salt]			4.9 nM	295 nM	6 nM	231 nM	
COc1ccc(-c2cc(C)c(N(Cc3cccnc3)S(=O)(=O)c3ccc(OC)cc3)c(C(=O)NO)c2)cc1 [Example 401, 4'-Methoxy-4-[(4-methoxy-benzenesulfonyl)-pyridin-3-ylmethyl-amino]-5-methyl-biphenyl-3-carboxylic acid hydroxyamide hydrochloride salt]			2.8 nM	176 nM	1.4 nM	146 nM	
COc1ccc(S(=O)(=O)N(Cc2cccnc2)c2c(C)cc(-c3cc4ccccc4s3)cc2C(=O)NO)cc1 [Example 402, 5-Benzo[b]thiophen-2-yl-N-hydroxy-2-[(4-methoxy-benzenesulfonyl)-pyridin-3-ylmethyl-amino]-3-methyl-benzamide hydrochloride salt]			8.5 nM	543 nM	2.6 nM	639 nM	
COc1ccc(S(=O)(=O)N(Cc2cccnc2)c2c(C)cc(-c3ccc(OC(F)(F)F)cc3)cc2C(=O)NO)cc1 [Example 404, 4-[(4-Methoxy-benzenesulfonyl)-pyridin-3-ylmethyl-amino]-5-methyl-4'-trifluoromethoxy-biphenyl-3-carboxylic acid hydroxyamide hydrochloride salt]		54%	9.5 nM	1800 nM	5.9 nM		
COc1ccc(S(=O)(=O)N(Cc2cccnc2)c2c(C)cc(-c3ccc4c(c3)OCO4)cc2C(=O)NO)cc1 [Example 405, 5-Benzo[1,3]dioxol-5-yl-N-hydroxy-2-[(4-methoxy-benzenesulfonyl)-pyridin-3-ylmethyl-amino]-3-methyl-benzamide hydrochloride salt]			5.8 nM	176 nM	4.1 nM	151 nM	

Second part, led by results:

inhibition at 1 µM (MMP-9)	inhibition at 1 µM (TACE)	Compound	IC50 (MMP-13; read-out: MMP-13 IC50)	IC50 (MMP-1)	IC50 (MMP-9)	IC50 (TACE; read-out: TACE IC50)	other results
47%	35%	COc1ccc(S(=O)(=O)N(CCO)c2c(C)cccc2C(=O)NO)cc1 [Example 388, N-Hydroxy-2-[(2-hydroxy-ethyl)-(4-methoxy-benzenesulfonyl)-amino]-3-methyl-benzamide]					inhibition at 1 µM (MMP-13): 39%; MMP-1 % inhibition (MMP-1): 66%(10)
28%	2%	Cc1cccc(C(=O)NO)c1N(Cc1cccnc1)S(=O)(=O)c1ccc(-c2ccc(C(F)(F)F)cc2)cc1 [Example 410, N-Hydroxy-3-methyl-2-[pyridin-3-ylmethyl-(4'-trifluoromethyl-biphenyl-4-sulfonyl)-amino]-benzamide]					MMP-13 % inhibition (MMP-13): 40%(.1); MMP-1 % inhibition (MMP-1): 47%(10)
39%	9%	COc1ccc(-c2ccc(S(=O)(=O)N(Cc3cccnc3)c3c(C)cccc3C(=O)NO)cc2)c(OC)c1 [Example 411, 2-[(2',4'-Dimethoxy-biphenyl-4-sulfonyl)-pyridin-3-ylmethyl-amino]-N-hydroxy-3-methyl-benzamide]					inhibition at 1 µM (MMP-13): 44%; MMP-1 % inhibition (MMP-1): 32%(10)
44%	3%	Cc1cccc(C(=O)NO)c1N(Cc1cccnc1)S(=O)(=O)c1ccc(-c2cccs2)cc1 [Example 412, N-Hydroxy-3-methyl-2-[pyridin-3-ylmethyl-(4-thiophen-2-yl-benzenesulfonyl)-amino]-benzamide]					MMP-13 % inhibition (MMP-13): 42%(.1); MMP-1 % inhibition (MMP-1): 69%(10)
	43%	C#Cc1ccc(S(=O)(=O)N(Cc2cccnc2)c2c(C)cccc2C(=O)NO)cc1 [Example 413, 2-[(4-Ethynyl-benzenesulfonyl)-pyridin-3-ylmethyl-amino]-N-hydroxy-3-methyl-benzamide]	75 nM	529 nM	55 nM		
68%	6%	Cc1cccc(C(=O)NO)c1N(Cc1cccnc1)S(=O)(=O)c1ccc(-c2cc3ccccc3s2)cc1 [Example 414, 2-[(4-Benzo[b]thiophen-2-yl-benzenesulfonyl)-pyridin-3-ylmethyl-amino]-N-hydroxy-3-methyl-benzamide]	38 nM				MMP-1 % inhibition (MMP-1): 29%(10)
